Data taken from PMC11079064, “Discovery of a brain penetrant small molecule antagonist targeting LPA1 receptors to reduce neuroinflammation and promote remyelination in multiple sclerosis” (Scientific Reports, 2024).
“Also recorded” adds a separate entry of the source. Like-named read-outs stand apart in the source and are kept apart here.

Columns and labels:
[1] = tested on: MOG-EAE mouse model; test: MOG-EAE mouse model, IBA1 immunostaining of spinal cord; assay type: in vivo; settings: 3 mg/kg
Protocol: A lower lumbar segment of spinal cord was transferred from the EM fixative to 30% sucrose overnight and then sectioned using a sliding microtome. The resulting sections were stored in 30% sucrose in 0.1 M Phosphate Buffer pH 7.4 and stored at 4 °C. Free-floating spinal cord sections were rinsed with PBS, blocked with 5% normal goat serum in 0.1% Triton-X/PBS for 2 h, and subsequently incubated with antibodies against IBA1 (Life Technologies, Carlsbad, CA, 1:500) or CD3 (Abcam, Waltham, MA, 1:500) overnight at 4 °C. Sections were then washed 3 times with 0.1% triton-X/PBS and transferred to secondary antibody (1:500, Carlsbad, CA) in 0.1% Triton-X/PBS for 2 h at room temperature. Hoechst 33342 was diluted 1:2000 and added during the final wash step. Sections were stained with 1% Sudan Black in 70% ethanol, and washed 3 × 5 min in PBS. Stained sections were mounted onto slides and evaluated using a Nikon A1R confocal microscope and analyzed using Nikon NIS Elements software. Regions of interest (ROIs) were selected based on the largest contiguous lesion defined by Hoechst and Sudan Black co-staining. […] Cells were counted using the automatic General Analysis function in NIS Elements.
Supplemental Figure 9. […] Left, IBA1^+ area was quantified and normalized to Hoechst counts (* p = 0.0166, *** p=0.0002, mean ± SEM, ANOVA with Tukey’s, n>4). […]

[2] = target: T1, LPA1 (Mus musculus, UniProt P61793); test: In vivo brain LPA1 receptor occupancy with [3H]-OPC3497
T1 construct: from tissue; host or cells: mouse brain (homogenate; forebrain of dosed C57BL6/N mice in the in vivo studies)
T1 sequence (P61793 whole entry): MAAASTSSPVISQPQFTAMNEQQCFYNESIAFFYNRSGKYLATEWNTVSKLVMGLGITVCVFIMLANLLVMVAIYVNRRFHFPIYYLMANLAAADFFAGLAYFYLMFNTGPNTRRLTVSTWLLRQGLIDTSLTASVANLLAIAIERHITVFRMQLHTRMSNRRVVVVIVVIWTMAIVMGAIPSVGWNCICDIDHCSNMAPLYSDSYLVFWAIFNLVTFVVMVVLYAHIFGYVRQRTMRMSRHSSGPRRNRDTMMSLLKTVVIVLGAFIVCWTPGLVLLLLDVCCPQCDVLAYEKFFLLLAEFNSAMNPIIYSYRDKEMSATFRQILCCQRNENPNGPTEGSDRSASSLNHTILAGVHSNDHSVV
Protocol: [^3H]-OPC3497 was diluted to 9.8 µCi/mL in saline and administered via IV injection to the lateral tail vein at a dose volume of 5 ml/kg at the times indicated. Mice were euthanized by decapitation, trunk blood collected into K3EDTA tubes and stored on wet ice, each brain rapidly dissected and the forebrain isolated, weighed and placed into a 5 ml polypropylene tube. Tissues were diluted with a 10 × volume of ice-cold binding buffer (50 mM HEPES, 100 mM NaCl, 2 mM EDTA, pH 7.4). Brains were homogenized and 350 µl of the homogenate was filtered over Whatman GF/B filters (GE Life Sciences, Marlborough, MA) pre-wetted with 0.5% polyethyleneimine. Filters were washed with cold 50 mM TRIS–HCl, 154 mM NaCl, 0.05% Tween 20, pH 7.4 twice and dried in an oven (~ 40–50 °C). 5 ml Ultima Gold F scintillation fluid (Perkin Elmer, Boston, MA, Boston, MA) was added to each tube and samples read on a Beckman LS6500 liquid scintillation counter. After all samples were collected, dissected, and filtered, the previously collected blood in K3EDTA tubes was centrifuged (1450 × g, 10 min, 4 °C) to separate plasma.

[3] = Plasma concentration time course after oral dose; assay type: in vivo; settings: 3 mg/kg oral, mouse
[4] = tested on: rat OPCs; test: OPC-macrophage Transwell co-culture; assay type: cell-based; settings: in presence of macrophages, 300 nM
Protocol: Following PDGF withdrawal, we observed a 41% decrease in the number of MBP^+ oligodendrocytes when co-cultured with macrophages.
OPCs were isolated as previously described. Cells were plated on the membrane layer of poly-L-lysine (Millipore Sigma, St. Louis, MO) coated Transwell culture plates (VWR, Radnor, PA) at a seeding density of 1 × 10^6 cells per well. Transwell culture plates have microporous membrane which allows for factors to flow between the top and bottom chamber. This permits us to minimize direct contact between the macrophage and OPCs while allowing for a constant, renewable source unlike conditioned media which can be depleted. […]
Isolation of macrophages. […] Differentiated oligodendrocytes were detected with a rat monoclonal antibody to MBP (Millipore Sigma, St. Louis, MO) and OPCs were detected with a rabbit monoclonal antibody to PDGFRα (Santa Cruz Biotechnology, Dallas, TX). Macrophages were detected with CD68 (Santa Cruz Biotechnology, Dallas, TX). […] Images were acquired using a 20× objective, each well was read in a 5 × 5 matrix. Data were analyzed using GraphPad Prism (La Jolla, CA) and statistical significance was determined by ANOVA.

## COc1ccc(NC(=O)N(c2ccccc2C(C)C)C2CCC(C(=O)O)CC2)c(OC(F)F)n1 (stereo not shown) [PIPE-791]
[1]
  level of IBA1+ staining in spinal cord: reduces IBA1^+ area; also recorded: significantly reduced
[2]; 3 mg/kg oral, followed out to 7 days
  time for which LPA1 occupancy was sustained: 24 h
[2]; once daily for 4 consecutive days (steady state), read-out: unbound brain EC50
  EC50: 2.4 nM
[2]; single oral dose 2 h prior to radioligand, mouse brain
  LPA1 receptor occupancy ED50: 0.17 mg/kg
[2]; single oral dose 24 h prior to radioligand, mouse brain
  LPA1 receptor occupancy ED50: 0.19 mg/kg
[2]; single oral dose, unbound brain concentration versus occupancy, read-out: unbound brain EC50 (Cu, brain)
  EC50: 2.2 nM
[2]; steady state: once daily for 4 days, occupancy 2 h after fourth dose
  LPA1 receptor occupancy ED50: 0.03 mg/kg
[3]
  plasma concentration after 3 days: below the limit of detection
  time of peak plasma concentration: 2 h
[4]
  increase in differentiation versus vehicle treated cultures: 2.1 fold
